From ChEMBL document CHEMBL1128143, “The synthesis of 5-substituted camptothecins as potential inhibitors of DNA topoisomerase I” (1995)

Key:
Format in all cases: functional
KB = assay: Inhibitory activity against protein linked DNA breaks in KB cells at 25 ug/mL after 1 hour; conditions: Homo sapiens
SW480 = assay: Inhibitory activity against SW480 cell line; inactive; conditions: Homo sapiens, read-out: ID50 (the source's name)
A549 = assay: Inhibitory activity against A549 cell line; inactive; conditions: Homo sapiens, read-out: ID50 (the source's name)
BT-549 = assay: Inhibitory activity against BT549 cell line; inactive; conditions: Homo sapiens, read-out: ID50 (the source's name)
PLC = assay: Inhibitory activity against PLC cell line; inactive; conditions: Homo sapiens, read-out: ID50 (the source's name)

CC[C@@]1(O)C(=O)OCc2c1cc1n(c2=O)Cc2c-1nc1ccccc1c2CO
inhibition at 25 µg/mL (KB): 97.6%

CC[C@@]1(O)C(=O)OCc2c1cc1n(c2=O)Cc2cc3ccccc3nc2-1 [CAMPTOTHECIN]
inhibition at 25 µg/mL (KB): 100%

CC[C@@]1(O)C(=O)OCc2c1cc1n(c2=O)[C@@H](CO)c2cc3ccccc3nc2-1
IC50 (SW480): > 5 µM | IC50 (A549): > 5 µM | IC50 (BT-549): > 5 µM | IC50 (PLC): > 5 µM | inhibition at 25 µg/mL (KB): 8.7%

CC[C@@]1(O)C(=O)OCc2c1cc1n(c2=O)[C@H](C(=O)c2cc(OC)c(OC)c(OC)c2)c2cc3ccccc3nc2-1
IC50 (SW480): > 5 µM | IC50 (A549): > 5 µM | IC50 (BT-549): > 5 µM | IC50 (PLC): > 5 µM | inhibition at 25 µg/mL (KB): 0%

CC[C@@]1(O)C(=O)OCc2c1cc1n(c2=O)Cc2c-1nc1ccccc1c2C=O
inhibition at 25 µg/mL (KB): 107%

CC[C@@]1(O)C(=O)OCc2c1cc1n(c2=O)C(CO)(CO)c2cc3ccccc3nc2-1
IC50 (SW480): > 5 µM | IC50 (A549): > 5 µM | IC50 (BT-549): > 5 µM | IC50 (PLC): > 5 µM | inhibition at 25 µg/mL (KB): 0%

CC[C@@]1(O)C(=O)OCc2c1cc1n(c2=O)[C@H](CO)c2cc3ccccc3nc2-1
IC50 (SW480): > 5 µM | IC50 (A549): > 5 µM | IC50 (BT-549): > 5 µM | IC50 (PLC): > 5 µM | inhibition at 25 µg/mL (KB): 20.4%
